Data reported in patent US20240082191A1, “TOPICAL F[…] PHOSPHOLIPID COMPOUNDS” (EGIS GYÓGYSZERGYÁR ZRT., priority 2021, published 2024).

Tests used:
[1] = Pharmacokinetic studies of pregabalin (blood levels), oral and topical
mice, allodynia = details: 2.5% aqueous solution, topical; cited from earlier work
human patient = details: 2.5% aqueous solution, topical; cited from earlier work
[2] = test system: rats with CCI of sciatic nerve; assay: Rat model of neuropathy: chronic constriction injury (CCI), paw withdrawal threshold with electronic von Frey device; type: in vivo; details: 16.66 mg/kg
From the text: Furthermore, based on the article Bennett G J, at al (Pain, A peripheral mononeuropathy in rat that produces disorders of pain sensation like those seen in man. 1988 April; 33(1):87-107) we have developed a method for the examination of the compositions of the present invention. Thus, we have examined the compositions according to the present invention also with a different model for measuring the alleviation of the peripheral neuropathic pain also. Namely, we have carried out examinations on rats using Chronic constriction injury (CCI) model. Three weeks following nerve injury rats were assessed for hind paw mechanical withdrawal thresholds. The paw withdrawal threshold (PWT) was determined with an Electronic von Frey device according to the modified up-down method of Dixon (Efficient analysis of experimental observations, Annu Rev Pharmacol Toxicol. 1980; 20:441-62). […] The method and results are shown in example 3 and on FIG. 9. […]
Briefly, under isoflurane anesthesia small blunt dissection was made into the skin of rat right thigh then three loosely constrictive ligatures were placed around common sciatic nerve (chronic constriction injury CCI). Three weeks following nerve injury rats were assessed for hind paw mechanical withdrawal thresholds. […]

CC(C)C[C@H](CN)CC(=O)O [pregabalin]
Blood levels after oral administration ([1]; oral, 16.66 mg/kg): relatively high blood levels
Amount of pregabalin entering the bloodstream during topical treatment ([1]; topical treatment): very small amounts
Time of maximum allodynia alleviating effect (mice, allodynia): 1 h
Duration of reduction of neuropathic pain in a human patient (human patient): 6 h
Reduction of hypersensitivity after oral administration [2]: not able to reduce hypersensitivity
